Legend:
Experiment in all cases: PDSP binding, primary screen
5-HT2C = target: T1, 5-HT2C (Homo sapiens, UniProt P28335)
T1 construct: purchased NIMH Psychoactive Drug Screening Program (PDSP), University of North Carolina-Chapel Hill
Experimental: (§1) This was achieved through the identification of potential pharmacological targets of compound 22 using the Psychoactive Drug Screening Program (PDSP) at University of North Carolina-Chapel-Hill. PDSP provides a platform for screening novel psychoactive compounds on human proteins expressed in the central nervous system in order to identify their biological target(s) ([Besnard et al., 2012]). Binding studies were done on 47 targets at a single dose of compound 22 (10 μM; Supplementary Table S1). This primary screen yielded a total of 5 hits for compound 22 (Table 2). These hits were the serotonin, dopamine, and norepinephrine transporters, as well as the sigma 1 and sigma 2 receptors.
(§2) Supplemental Table 1. Compound 22 binding studies from PDSP: primary screen for compound 22 and subsequent hits (50% cut-off, hits highlighted in red). The primary screen was performed by PDSP as described previously (Besnard et al., 2012).

Beta3 = target: T2, Beta3 (Homo sapiens, UniProt P13945)
T2 construct: purchased NIMH Psychoactive Drug Screening Program (PDSP), University of North Carolina-Chapel Hill
Experimental: as §1, §2

M5 = target: T3, M5 (Homo sapiens, UniProt P08912)
T3 construct: purchased NIMH Psychoactive Drug Screening Program (PDSP), University of North Carolina-Chapel Hill
Experimental: as §1, §2

Alpha2A = target: T4, Alpha2A (Homo sapiens, UniProt P08913)
T4 construct: purchased NIMH Psychoactive Drug Screening Program (PDSP), University of North Carolina-Chapel Hill
Experimental: as §1, §2

M3 = target: T5, M3 (Homo sapiens, UniProt P20309)
T5 construct: purchased NIMH Psychoactive Drug Screening Program (PDSP), University of North Carolina-Chapel Hill
Experimental: as §1, §2

Alpha1D = target: T6, Alpha1D (Homo sapiens, UniProt P25100)
T6 construct: purchased NIMH Psychoactive Drug Screening Program (PDSP), University of North Carolina-Chapel Hill
Experimental: as §1, §2

5-HT1B = target: T7, 5-HT1B (Homo sapiens, UniProt P28222)
T7 construct: purchased NIMH Psychoactive Drug Screening Program (PDSP), University of North Carolina-Chapel Hill
Experimental: as §1, §2

D5 = target: T8, D5 (Homo sapiens, UniProt P21918)
T8 construct: purchased NIMH Psychoactive Drug Screening Program (PDSP), University of North Carolina-Chapel Hill
Experimental: as §1, §2

M4 = target: T9, M4 (Homo sapiens, UniProt P08173)
T9 construct: purchased NIMH Psychoactive Drug Screening Program (PDSP), University of North Carolina-Chapel Hill
Experimental: as §1, §2

D3 = target: T10, D3 (Homo sapiens, UniProt P35462)
T10 construct: purchased NIMH Psychoactive Drug Screening Program (PDSP), University of North Carolina-Chapel Hill
Experimental: as §1, §2

Alpha1A = target: T11, Alpha1A (Homo sapiens, UniProt P35348)
T11 construct: purchased NIMH Psychoactive Drug Screening Program (PDSP), University of North Carolina-Chapel Hill
Experimental: as §1, §2

5-HT2B = target: T12, 5-HT2B (Homo sapiens, UniProt P41595)
T12 construct: purchased NIMH Psychoactive Drug Screening Program (PDSP), University of North Carolina-Chapel Hill
Experimental: as §1, §2

MOR = target: T13, MOR (Homo sapiens, UniProt P35372)
T13 construct: purchased NIMH Psychoactive Drug Screening Program (PDSP), University of North Carolina-Chapel Hill
Experimental: as §1, §2

NET = target: T14, NET (Homo sapiens, UniProt P23975)
T14 construct: purchased NIMH Psychoactive Drug Screening Program (PDSP), University of North Carolina-Chapel Hill
Experimental: as §1, §2

Sigma 1 = target: T15, Sigma 1 (Homo sapiens, UniProt Q99720)
T15 construct: purchased NIMH Psychoactive Drug Screening Program (PDSP), University of North Carolina-Chapel Hill
Experimental: as §1, §2

5-HT1A = target: T16, 5-HT1A (Homo sapiens, UniProt P08908)
T16 construct: purchased NIMH Psychoactive Drug Screening Program (PDSP), University of North Carolina-Chapel Hill
Experimental: as §1, §2

5-HT1D = target: T17, 5-HT1D (Homo sapiens, UniProt P28221)
T17 construct: purchased NIMH Psychoactive Drug Screening Program (PDSP), University of North Carolina-Chapel Hill
Experimental: as §1, §2

H1 = target: T18, H1 (Homo sapiens, UniProt P35367)
T18 construct: purchased NIMH Psychoactive Drug Screening Program (PDSP), University of North Carolina-Chapel Hill
Experimental: as §1, §2

5-HT2A = target: T19, 5-HT2A (Homo sapiens, UniProt P28223)
T19 construct: purchased NIMH Psychoactive Drug Screening Program (PDSP), University of North Carolina-Chapel Hill
Experimental: as §1, §2

H4 = target: T20, H4 (Homo sapiens, UniProt Q9H3N8)
T20 construct: purchased NIMH Psychoactive Drug Screening Program (PDSP), University of North Carolina-Chapel Hill
Experimental: as §1, §2

D4 = target: T21, D4 (Homo sapiens, UniProt P21917)
T21 construct: purchased NIMH Psychoactive Drug Screening Program (PDSP), University of North Carolina-Chapel Hill
Experimental: as §1, §2

SERT = target: T22, SERT (Homo sapiens, UniProt P31645)
T22 construct: purchased NIMH Psychoactive Drug Screening Program (PDSP), University of North Carolina-Chapel Hill
Experimental: as §1, §2

H2 = target: T23, H2 (Homo sapiens, UniProt P25021)
T23 construct: purchased NIMH Psychoactive Drug Screening Program (PDSP), University of North Carolina-Chapel Hill
Experimental: as §1, §2

5-ht5a = target: T24, 5-ht5a (Homo sapiens, UniProt P47898)
T24 construct: purchased NIMH Psychoactive Drug Screening Program (PDSP), University of North Carolina-Chapel Hill
Experimental: as §1, §2

M2 = target: T25, M2 (Homo sapiens, UniProt P08172)
T25 construct: purchased NIMH Psychoactive Drug Screening Program (PDSP), University of North Carolina-Chapel Hill
Experimental: as §1, §2

5-HT7 = target: T26, 5-HT7 (Homo sapiens, UniProt P34969)
T26 construct: purchased NIMH Psychoactive Drug Screening Program (PDSP), University of North Carolina-Chapel Hill
Experimental: as §1, §2

M1 = target: T27, M1 (Homo sapiens, UniProt P11229)
T27 construct: purchased NIMH Psychoactive Drug Screening Program (PDSP), University of North Carolina-Chapel Hill
Experimental: as §1, §2

H3 = target: T28, H3 (Homo sapiens, UniProt Q9Y5N1)
T28 construct: purchased NIMH Psychoactive Drug Screening Program (PDSP), University of North Carolina-Chapel Hill
Experimental: as §1, §2

5-HT1E = target: T29, 5-HT1E (Homo sapiens, UniProt P28566)
T29 construct: purchased NIMH Psychoactive Drug Screening Program (PDSP), University of North Carolina-Chapel Hill
Experimental: as §1, §2

5-HT6 = target: T30, 5-HT6 (Homo sapiens, UniProt P50406)
T30 construct: purchased NIMH Psychoactive Drug Screening Program (PDSP), University of North Carolina-Chapel Hill
Experimental: as §1, §2

DAT = target: T31, DAT (Homo sapiens, UniProt Q01959)
T31 construct: purchased NIMH Psychoactive Drug Screening Program (PDSP), University of North Carolina-Chapel Hill
Experimental: as §1, §2

5-HT3 = target: T32, 5-HT3 (Homo sapiens, UniProt P46098)
T32 construct: purchased NIMH Psychoactive Drug Screening Program (PDSP), University of North Carolina-Chapel Hill
Experimental: as §1, §2

Alpha2B = target: T33, Alpha2B (Homo sapiens, UniProt P18089)
T33 construct: purchased NIMH Psychoactive Drug Screening Program (PDSP), University of North Carolina-Chapel Hill
Experimental: as §1, §2

KOR = target: T34, KOR (Homo sapiens, UniProt P41145)
T34 construct: purchased NIMH Psychoactive Drug Screening Program (PDSP), University of North Carolina-Chapel Hill
Experimental: as §1, §2

Beta1 = target: T35, Beta1 (Homo sapiens, UniProt P08588)
T35 construct: purchased NIMH Psychoactive Drug Screening Program (PDSP), University of North Carolina-Chapel Hill
Experimental: as §1, §2

D2 = target: T36, D2 (Homo sapiens, UniProt P14416)
T36 construct: purchased NIMH Psychoactive Drug Screening Program (PDSP), University of North Carolina-Chapel Hill
Experimental: as §1, §2

Sigma 2 = tested on: Sigma 2; parameters: species or system human; details: 10 μM
Experimental: as §1, §2

PBR = tested on: PBR; parameters: species or system human; details: 10 μM
Experimental: as §1, §2

NMDA = tested on: NMDA; parameters: species or system human; details: 10 μM
Experimental: as §1, §2

GABAA = tested on: GABAA; parameters: species or system human; details: 10 μM
Experimental: as §1, §2

BZP site = tested on: BZP site; parameters: species or system human; details: 10 μM
Experimental: as §1, §2

AMPA = tested on: AMPA; parameters: species or system human; details: 10 μM
Experimental: as §1, §2

T27 sequence (P11229 whole entry): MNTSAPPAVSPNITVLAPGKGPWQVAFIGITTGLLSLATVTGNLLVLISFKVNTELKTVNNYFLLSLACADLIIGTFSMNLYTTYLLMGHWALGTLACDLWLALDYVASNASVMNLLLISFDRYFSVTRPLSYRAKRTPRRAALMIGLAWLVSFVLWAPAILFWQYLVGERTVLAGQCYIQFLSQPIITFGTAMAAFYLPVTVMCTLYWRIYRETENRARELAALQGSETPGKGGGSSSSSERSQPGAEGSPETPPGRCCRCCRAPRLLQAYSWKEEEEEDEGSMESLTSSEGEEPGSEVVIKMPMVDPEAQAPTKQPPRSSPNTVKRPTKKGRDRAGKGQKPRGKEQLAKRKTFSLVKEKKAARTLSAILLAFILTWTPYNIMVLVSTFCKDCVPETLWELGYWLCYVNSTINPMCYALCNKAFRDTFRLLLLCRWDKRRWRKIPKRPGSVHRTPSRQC
T34 sequence (P41145 whole entry): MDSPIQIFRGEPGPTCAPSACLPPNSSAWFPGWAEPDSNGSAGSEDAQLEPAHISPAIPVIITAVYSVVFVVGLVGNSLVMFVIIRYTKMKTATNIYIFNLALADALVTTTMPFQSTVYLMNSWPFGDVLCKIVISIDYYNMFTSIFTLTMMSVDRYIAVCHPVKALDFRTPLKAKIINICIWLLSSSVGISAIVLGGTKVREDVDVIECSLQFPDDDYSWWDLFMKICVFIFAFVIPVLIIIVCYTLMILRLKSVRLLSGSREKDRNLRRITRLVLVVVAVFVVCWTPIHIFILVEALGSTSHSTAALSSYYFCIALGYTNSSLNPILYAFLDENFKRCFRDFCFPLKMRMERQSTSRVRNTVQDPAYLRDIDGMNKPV
T31 sequence (Q01959 whole entry): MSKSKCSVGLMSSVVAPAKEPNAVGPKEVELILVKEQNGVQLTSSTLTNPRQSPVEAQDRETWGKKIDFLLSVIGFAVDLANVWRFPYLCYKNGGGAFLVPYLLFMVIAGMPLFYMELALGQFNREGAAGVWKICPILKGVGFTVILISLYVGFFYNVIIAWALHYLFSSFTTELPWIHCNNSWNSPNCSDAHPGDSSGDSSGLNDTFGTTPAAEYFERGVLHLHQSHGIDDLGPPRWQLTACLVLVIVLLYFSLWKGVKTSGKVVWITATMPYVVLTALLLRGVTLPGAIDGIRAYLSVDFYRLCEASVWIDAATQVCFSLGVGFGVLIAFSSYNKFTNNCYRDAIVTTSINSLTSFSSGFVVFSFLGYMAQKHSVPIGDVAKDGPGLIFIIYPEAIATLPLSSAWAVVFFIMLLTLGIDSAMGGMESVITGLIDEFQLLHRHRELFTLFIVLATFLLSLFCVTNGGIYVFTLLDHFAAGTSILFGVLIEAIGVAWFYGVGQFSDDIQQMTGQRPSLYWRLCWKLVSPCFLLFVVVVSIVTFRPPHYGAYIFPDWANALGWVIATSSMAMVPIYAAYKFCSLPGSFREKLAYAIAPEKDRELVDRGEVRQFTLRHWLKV
T16 sequence (P08908 whole entry): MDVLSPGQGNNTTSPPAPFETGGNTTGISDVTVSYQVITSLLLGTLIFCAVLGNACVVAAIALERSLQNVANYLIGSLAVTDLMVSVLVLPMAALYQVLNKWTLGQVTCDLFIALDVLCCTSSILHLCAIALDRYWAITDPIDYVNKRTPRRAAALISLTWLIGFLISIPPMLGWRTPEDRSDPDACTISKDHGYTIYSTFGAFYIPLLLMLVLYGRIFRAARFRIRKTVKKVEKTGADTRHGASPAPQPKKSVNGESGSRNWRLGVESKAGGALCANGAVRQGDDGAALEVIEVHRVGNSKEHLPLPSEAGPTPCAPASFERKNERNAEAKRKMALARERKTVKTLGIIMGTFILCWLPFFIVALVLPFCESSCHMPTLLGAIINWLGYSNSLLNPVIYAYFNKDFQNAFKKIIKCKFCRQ
T30 sequence (P50406 whole entry): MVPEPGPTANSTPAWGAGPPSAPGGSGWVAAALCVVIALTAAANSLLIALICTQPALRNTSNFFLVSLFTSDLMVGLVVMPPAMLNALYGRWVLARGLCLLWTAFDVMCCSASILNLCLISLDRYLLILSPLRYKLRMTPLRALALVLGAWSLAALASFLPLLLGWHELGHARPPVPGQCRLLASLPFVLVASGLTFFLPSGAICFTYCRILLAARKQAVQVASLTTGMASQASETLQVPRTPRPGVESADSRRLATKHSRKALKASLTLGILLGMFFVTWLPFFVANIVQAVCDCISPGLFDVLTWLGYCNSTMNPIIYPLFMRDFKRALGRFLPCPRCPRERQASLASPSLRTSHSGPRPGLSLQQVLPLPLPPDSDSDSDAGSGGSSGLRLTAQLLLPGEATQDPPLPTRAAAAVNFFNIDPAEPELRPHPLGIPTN
T3 sequence (P08912 whole entry): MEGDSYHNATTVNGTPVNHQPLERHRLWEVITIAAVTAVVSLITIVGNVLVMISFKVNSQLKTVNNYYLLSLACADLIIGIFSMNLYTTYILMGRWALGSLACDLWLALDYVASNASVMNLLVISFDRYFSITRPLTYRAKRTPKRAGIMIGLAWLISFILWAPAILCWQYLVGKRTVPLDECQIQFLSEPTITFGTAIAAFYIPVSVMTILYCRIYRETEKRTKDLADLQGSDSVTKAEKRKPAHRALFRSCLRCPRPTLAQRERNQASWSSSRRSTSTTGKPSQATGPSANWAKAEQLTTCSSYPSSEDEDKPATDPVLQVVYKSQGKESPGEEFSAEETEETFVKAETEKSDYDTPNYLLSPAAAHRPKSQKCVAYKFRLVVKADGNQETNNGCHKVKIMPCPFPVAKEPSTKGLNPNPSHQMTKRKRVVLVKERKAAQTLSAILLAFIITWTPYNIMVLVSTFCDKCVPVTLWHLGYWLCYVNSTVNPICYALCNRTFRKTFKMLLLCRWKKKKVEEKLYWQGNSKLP
T23 sequence (P25021 whole entry): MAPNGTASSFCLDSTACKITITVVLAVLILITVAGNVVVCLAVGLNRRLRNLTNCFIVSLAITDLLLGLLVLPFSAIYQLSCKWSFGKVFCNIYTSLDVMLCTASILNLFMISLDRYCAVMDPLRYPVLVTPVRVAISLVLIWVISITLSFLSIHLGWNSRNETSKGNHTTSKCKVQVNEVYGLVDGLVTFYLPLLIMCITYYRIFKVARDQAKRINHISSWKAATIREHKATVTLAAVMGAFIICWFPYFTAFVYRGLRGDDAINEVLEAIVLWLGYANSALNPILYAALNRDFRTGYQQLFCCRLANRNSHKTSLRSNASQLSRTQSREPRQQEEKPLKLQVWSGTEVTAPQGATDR
T24 sequence (P47898 whole entry): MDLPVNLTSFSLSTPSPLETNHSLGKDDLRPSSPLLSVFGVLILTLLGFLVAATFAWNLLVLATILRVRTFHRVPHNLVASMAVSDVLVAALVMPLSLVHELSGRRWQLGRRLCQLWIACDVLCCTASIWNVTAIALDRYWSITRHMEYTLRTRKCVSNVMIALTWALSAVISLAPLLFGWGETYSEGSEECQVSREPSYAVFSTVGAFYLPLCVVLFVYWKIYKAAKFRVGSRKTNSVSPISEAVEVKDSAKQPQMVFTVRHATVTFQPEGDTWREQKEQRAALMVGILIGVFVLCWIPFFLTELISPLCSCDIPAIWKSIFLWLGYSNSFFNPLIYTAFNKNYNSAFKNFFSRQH
T10 sequence (P35462 whole entry): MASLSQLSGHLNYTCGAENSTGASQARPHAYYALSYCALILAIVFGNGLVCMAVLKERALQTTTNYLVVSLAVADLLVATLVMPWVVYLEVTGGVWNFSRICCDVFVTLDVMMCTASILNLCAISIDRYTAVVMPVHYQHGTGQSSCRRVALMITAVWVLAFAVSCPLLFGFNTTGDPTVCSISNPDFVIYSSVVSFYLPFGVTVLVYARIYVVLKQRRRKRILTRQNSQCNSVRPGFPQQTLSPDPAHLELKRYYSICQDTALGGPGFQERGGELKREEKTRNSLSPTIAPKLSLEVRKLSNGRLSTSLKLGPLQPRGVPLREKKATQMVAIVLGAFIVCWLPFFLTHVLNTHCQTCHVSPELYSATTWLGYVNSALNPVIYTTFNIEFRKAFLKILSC
T2 sequence (P13945 whole entry): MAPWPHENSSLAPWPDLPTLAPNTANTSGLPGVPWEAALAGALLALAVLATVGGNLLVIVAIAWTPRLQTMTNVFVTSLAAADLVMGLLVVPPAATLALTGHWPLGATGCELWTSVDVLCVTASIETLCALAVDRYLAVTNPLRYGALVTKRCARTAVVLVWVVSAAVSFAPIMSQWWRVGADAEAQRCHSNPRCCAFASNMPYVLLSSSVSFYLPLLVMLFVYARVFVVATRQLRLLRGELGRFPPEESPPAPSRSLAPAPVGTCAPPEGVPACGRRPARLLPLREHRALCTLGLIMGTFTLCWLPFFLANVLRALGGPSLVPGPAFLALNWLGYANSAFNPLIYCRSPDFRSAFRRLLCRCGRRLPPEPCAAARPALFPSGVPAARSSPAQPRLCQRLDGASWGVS
T6 sequence (P25100 whole entry): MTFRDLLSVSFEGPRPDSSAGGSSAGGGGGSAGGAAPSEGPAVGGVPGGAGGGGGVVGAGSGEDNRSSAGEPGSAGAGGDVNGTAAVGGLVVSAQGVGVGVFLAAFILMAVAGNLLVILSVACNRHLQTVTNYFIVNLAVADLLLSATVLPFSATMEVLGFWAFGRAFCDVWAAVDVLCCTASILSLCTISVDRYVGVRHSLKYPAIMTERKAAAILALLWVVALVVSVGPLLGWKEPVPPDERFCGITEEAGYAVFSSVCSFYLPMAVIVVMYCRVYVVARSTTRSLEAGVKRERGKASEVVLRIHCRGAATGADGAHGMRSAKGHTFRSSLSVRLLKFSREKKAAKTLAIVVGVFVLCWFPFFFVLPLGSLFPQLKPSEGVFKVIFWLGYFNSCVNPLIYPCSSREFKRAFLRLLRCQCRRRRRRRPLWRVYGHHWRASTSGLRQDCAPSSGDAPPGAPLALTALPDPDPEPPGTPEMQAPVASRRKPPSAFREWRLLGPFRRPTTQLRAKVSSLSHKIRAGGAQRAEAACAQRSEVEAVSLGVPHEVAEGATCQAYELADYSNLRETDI

`Clc1ccc(CNCc2ccc(Cn3cncn3)cc2)c(Cl)c1` [compound 22] showed an inhibition at 10 µM (5-HT2C) of 18.5%, an inhibition at 10 µM (Beta3) of -9.1% and an inhibition at 10 µM (M5) of 1.4%. The inhibition at 10 µM (Alpha2A) was 32.4%, the inhibition at 10 µM (M3) was 15.5% and the inhibition at 10 µM (Alpha1D) was 11.6%. For the same compound, the inhibition at 10 µM (5-HT1B) was -13.5%, the inhibition at 10 µM (D5) was -6.8% and the inhibition at 10 µM (M4) was 15.9%. The inhibition at 10 µM (D3) was 9.4%, the inhibition at 10 µM (Alpha1A) was -13.9% and the inhibition at 10 µM (5-HT2B) was 6.7%. The inhibition at 10 µM (MOR) was -3.7%, the inhibition at 10 µM (NET) was 93.4% and the inhibition at 10 µM (Sigma 1) was 93.2%. It also gave an inhibition at 10 µM (5-HT1A) of 9.3%, an inhibition at 10 µM (5-HT1D) of 9.7% and an inhibition at 10 µM (H1) of 6.3%. It also gave an inhibition at 10 µM (5-HT2A) of 2.1%, an inhibition at 10 µM (H4) of -9.8% and an inhibition at 10 µM (D4) of 17.6%. The inhibition at 10 µM (SERT) was 57.3%, the inhibition at 10 µM (H2) was 45.2% and the inhibition at 10 µM (5-ht5a) was 15.3%. For the same compound, the inhibition at 10 µM (M2) was 7.1%, the inhibition at 10 µM (5-HT7) was 20.2% and the inhibition at 10 µM (M1) was 18.3%. It also gave an inhibition at 10 µM (H3) of 17.8%, an inhibition at 10 µM (5-HT1E) of -1.7% and an inhibition at 10 µM (5-HT6) of 4.6%. For the same compound, the inhibition at 10 µM (DAT) was 60.5%, the inhibition at 10 µM (5-HT3) was 6% and the inhibition at 10 µM (Alpha2B) was 22.6%. For the same compound, the inhibition at 10 µM (KOR) was -10.2%, the inhibition at 10 µM (Beta1) was -3.5% and the inhibition at 10 µM (D2) was 36.7%. For the same compound, the “% Inhibition” value (Sigma 2) was 78.4%, the “% Inhibition” value (PBR) was 23.1% and the “% Inhibition” value (NMDA) was -1.7%. The “% Inhibition” value (GABAA) was 5.2%, the “% Inhibition” value (BZP site) was 1.1% and the “% Inhibition” value (AMPA) was 13.4%.

Reference: article PMC6131539, “Behavioral Effects of a Potential Novel TAAR1 Antagonist” (Frontiers in Pharmacology, 2018)
